For this test, the target named is PASK (Homo sapiens (Human), UniProt Q96RG2). The experiment in a line: PAS Kinase FRET Assay. Type of test: biochemical. The settings on record: TR-FRET assay; read-out: IC50 Kinase Domain. The text has this: The aim of the FRET assay is to determine the inhibition potential of test compounds on targeted kinase. This assay platform provides a homogenous screening method for measuring kinase activity by quantitating the amount of phospho-substrate in solution following a kinase reaction.
In the presence of kinase and ATP, the Ulight-peptide is phosphorylated and captured by an anti-phospho-substrate antibody, which brings the Eu chelate donor and Ulight acceptor dyes into close proximity. Upon excitation at 340 nm, the Eu chelate transfers its energy to the Ulight dye, resulting in a fluorescent light emission at 665 nm
Titration of kinase at 1 mM ATP was achieved via the following protocol. After making serial three-fold dilutions of PASK (Invitrogen) in reaction buffer across the plate; 5 μl of kinase dilution and 5 μl substrate/ATP mix were added to the wells of the white Optiplate-384 (PerkinElmer). The contents of the plate were and incubated at RT for 1 h. The reaction was stopped by adding 5 μl of stop solution to each test well followed by mixing and incubation at RT for 10 minutes. 5 μl of detection mix (detection antibody diluted in detection buffer) was added; the contents of the plate were mixed and then incubated in the dark for 1 hour at RT. The signal was recorded at TR-FRET mode (665 nm/615 nm). The results were graphed to calculate the EC50.
Titration of ATP at the EC50 concentration of kinase to determine ATP Km, app. was performed using the following method. After making serial dilutions of ATP (Invitrogen), 5 μl of ATP dilution and 5 μl substrate/kinase mix were added to the wells of the white Optiplate-384 (PerkinElmer). The contents of the plate were and incubated at RT for 1 h. The reaction was stopped by adding 5 μl of stop solution to each test well followed by mixing and incubation at RT for 10 minutes. 5 μl of detection mix (detection antibody diluted in detection buffer) was added; the contents of the plate were mixed and then incubated in the dark for 1 hour at RT. The signal was recorded at TR-FRET mode (665 nm/615 nm). The results were graphed to calculate the EC50 as the ATP Km, app.
Compound screening was done via the following method. 10 mM stock solution of test compound in DMSO was prepared by dissolving test compound in DMSO at RT for 1 hour, and then sonicating at 100% output for 8 minutes. If compound is not soluble under this condition, it was diluted to 3 mM. Kinase reaction buffer was prepared containing 10 mM MgCl2, 50 mM HEPES, 1 mM EGTA, 0.01% TWEEN-20, 2 mM DTT. Serial dilutions of the test compounds were prepared at 4×final assay concentrations using Freedom EVO200® dispensing system as follows: 12×10^−5 M, 4×10^−5 M, 1.33×10^−5 M, 4.44×10^−6 M, 1.48×10^−6 M, 4.92×10^−7 M, 1.65×10^−7 M, […], 1.82×10^−8M, 6.09×10^−9, 2.03×10^−9 M. Test compounds (2.5 μl at 4× the final assay concentration) was added to wells using Freedom EVO200® dispensing system. As a positive control, 2.5 μl of positive compound was added to assay wells, and 2.5 μl of DMSO to assay wells as vehicle control. Kinase solution was prepared in reaction buffer at 2×final assay concentration. Kinase solution (5 μl) was added to each well of the assay plate. The substrate and ATP solution was prepared in kinase reaction buffer at 4×final assay concentration. The kinase reaction was started by adding 2.5 μl of substrate+ATP mix solution to each well of the assay plate. The plate is mixed on a plate shaker; then covered and allowed to react for 2 hours in the dark at 25° C. without shaking. The reaction was stopped by adding 5 μl of stop solution to each test well followed by mixing and incubation at RT for 10 minutes in the dark. 5 μl of detection mix (detection antibody diluted in detection buffer) was added; the contents of the plate were mixed and then incubated in the dark for 1 hour at RT. The signal was recorded at TR-FRET mode (665 nm/615 nm).
(In general: Time-resolved FRET reads energy transfer from a long-lived donor to a nearby acceptor.)

As a reminder, the IC50 is the concentration that gives 50% inhibition.

Sequence of PASK (Q96RG2 999-1251): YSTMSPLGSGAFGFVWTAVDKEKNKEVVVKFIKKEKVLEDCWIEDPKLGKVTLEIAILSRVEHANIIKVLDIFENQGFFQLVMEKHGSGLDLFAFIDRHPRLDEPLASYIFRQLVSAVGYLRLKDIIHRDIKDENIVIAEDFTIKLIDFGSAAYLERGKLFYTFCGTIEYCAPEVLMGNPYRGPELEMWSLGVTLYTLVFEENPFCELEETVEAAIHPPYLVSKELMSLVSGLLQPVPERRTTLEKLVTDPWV

In the case of `CC(=O)Nc1nn2c(=O)cc(-c3ccc4[nH]nnc4c3)[nH]c2c1-c1ccccn1` [Example 202, N-(5-(1H-Benzo[d][1,2,3]triazol-5-yl)-7-oxo-3-(pyridin-2-yl)-4,7-dihydropyrazolo[1,5-a]pyrimidin-2-yl)acetamide], the IC50 is at most 10 µM.

Take `CCC(=O)Nc1nn2c(=O)cc(-c3ccc4nn[nH]c4c3)[nH]c2c1-c1ccccn1` [Example 203, N-(5-(1H-Benzo[d][1,2,3]triazol-6-yl)-7-oxo-3-(pyridin-2-yl)-4,7-dihydropyrazolo[1,5-a]pyrimidin-2-yl)propionamide]: the IC50 is at most 10 µM.

Take `CCn1ncc2cc(-c3cc(=O)n4nc(NC(C)=O)c(-c5ccccn5)c4[nH]3)ccc21` [Example 204, N-(5-(1-Ethyl-1H-indazol-5-yl)-7-oxo-3-(pyridin-2-yl)-4,7-dihydropyrazolo[1,5-a]pyrimidin-2-yl)acetamide]: the half-inhibitory concentration (IC50) is at most 10 µM.

As to `CCc1nn2c(=O)cc(-c3ccc4[nH]nnc4c3)[nH]c2c1-c1ccccc1` [Example 206, 5-(1H-Benzo[d][1,2,3]triazol-5-yl)-2-ethyl-3-phenylpyrazolo[1,5-a]pyrimidin-7(4H)-one], the IC50 was at most 10 µM.

On to `O=c1cc(-c2ccc3[nH]nnc3c2)[nH]c2c(Cc3ccccc3)cnn12` [Example 207, 5-(1H-Benzo[d][1,2,3]triazol-5-yl)-3-benzylpyrazolo[1,5-a]pyrimidin-7(4H)-one], for which the IC50 is at most 10 µM.

`Nc1nn2c(=O)cc(-c3ccc4[nH]nnc4c3)[nH]c2c1Cc1ccccc1` [Example 208, 2-Amino-5-(1H-benzo[d][1,2,3]triazol-5-yl)-3-benzylpyrazolo[1,5-a]pyrimidin-7(4H)-one]: the IC50 is at most 10 µM.

As to `O=c1cc(-c2ccc3[nH]nnc3c2)[nH]c2c(Cc3ccccc3)c(O)nn12` [Example 209, 5-(1H-Benzo[d][1,2,3]triazol-5-yl)-3-benzyl-2-hydroxypyrazolo[1,5-a]pyrimidin-7(4H)-one], the IC50 was at most 10 µM.

Consider `O=c1cc(-c2ccc3c(c2)OCO3)[nH]c2c(Cc3ccccn3)cnn12` [Example 211, 5-(Benzo[d][1,3]dioxol-5-yl)-3-(pyridin-2-ylmethyl)-pyrazolo[1,5-a]pyrimidin-7(4H)-one], for which the half-maximal inhibitory concentration (IC50) is at most 10 µM.

Consider `Cc1nn2c(=O)cc(-c3ccc4[nH]nnc4c3)[nH]c2c1-c1ccccc1` [Example 212, 5-(1H-Benzo[d][1,2,3]triazol-5-yl)-2-methyl-3-phenylpyrazolo[1,5-a]pyrimidin-7(4H)-one], for which the IC50 was at most 10 µM.

As to `O=c1cc(-c2ccc3[nH]nnc3c2)[nH]c2c(-c3ccccc3)c(O)nn12` [Example 215, 5-(1H-Benzo[d][1,2,3]triazol-5-yl)-2-hydroxy-3-phenylpyrazolo[1,5-a]pyrimidin-7(4H)-one], the IC50 was at most 10 µM.

As for `Cc1nn2c(=O)cc(-c3ccc4[nH]nnc4c3)[nH]c2c1-c1ccc(Cl)cc1` [Example 216, 5-(1H-Benzo[d][1,2,3]triazol-5-yl)-3-(4-chlorophenyl)-2-methylpyrazolo[1,5-a]pyrimidin-7(4H)-one], the IC50 is at most 10 µM.

Turning to `Cc1nn2c(=O)cc(-c3ccc4[nH]ncc4c3)[nH]c2c1-c1ccccn1` [Example 219, 5-(1H-Indazol-5-yl)-2-methyl-3-(pyridin-2-yl)pyrazolo[1,5-a]pyrimidin-7(4H)-one], the concentration for half-maximal inhibition (IC50) is at most 10 µM.

Regarding `Cc1nn2c(=O)cc(-c3ccc4[nH]ncc4c3)[nH]c2c1-c1ccc(Cl)cc1` [Example 220, 3-(4-Chlorophenyl)-5-(1H-indazol-5-yl)-2-methylpyrazolo[1,5-a]pyrimidin-7(4H)-one], the IC50 was at most 10 µM.

With `Nc1nn2c(=O)cc(-c3ccc4[nH]ncc4c3)[nH]c2c1-c1ccc(Cl)cc1` [Example 221, 2-Amino-3-(4-chlorophenyl)-5-(1H-indazol-5-yl)pyrazolo[1,5-a]pyrimidin-7(4H)-one], the IC50 is at most 10 µM.

In the case of `O=c1cc(-c2ccc3[nH]ncc3c2)[nH]c2c(-c3ccc(Cl)cc3)c(O)nn12` [Example 222, 3-(4-Chlorophenyl)-2-hydroxy-5-(1H-indazol-5-yl)pyrazolo[1,5-a]pyrimidin-7(4H)-one], the IC50 was at most 10 µM.

On to `CCCNC(=O)c1c(N)nn2c(=O)cc(-c3ccc4c(c3)OCCO4)[nH]c12` [Example 226, 2-Amino-5-(2,3-dihydrobenzo[b][1,4]dioxin-6-yl)-7-oxo-N-propyl-4,7-dihydropyrazolo[1,5-a]pyrimidine-3-carboxamide], for which the IC50 is at most 10 µM.

With `CCCNC(=O)c1c(O)nn2c(=O)cc(-c3ccc4[nH]nnc4c3)[nH]c12` [Example 228, 5-(1H-Benzo[d][1,2,3]triazol-5-yl)-2-hydroxy-7-oxo-N-propyl-4,7-dihydropyrazolo[1,5-a]pyrimidine-3-carboxamide], the IC50 was at most 10 µM.

On to `Cc1c(-c2cc(=O)n3ncc(-c4ccccn4)c3[nH]2)ccc2c1OCO2` [Example 229, 5-(4-Methylbenzo[d][1,3]dioxol-5-yl)-3-(pyridin-2-yl)pyrazolo[1,5-a]pyrimidin-7(4H)-one], for which the IC50 is at most 10 µM.

On to `Cc1c(-c2cc(=O)n3nc(N)c(-c4ccccn4)c3[nH]2)ccc2c1OCO2` [Example 230, 2-Amino-5-(4-methylbenzo[d][1,3]dioxol-5-yl)-3-(pyridin-2-yl)pyrazolo[1,5-a]pyrimidin-7(4H)-one], for which the 50% inhibitory concentration (IC50) is at most 10 µM.

Regarding `Cc1c(-c2cc(=O)n3nc(O)c(-c4ccccn4)c3[nH]2)ccc2c1OCO2` [Example 231, 2-Hydroxy-5-(4-methylbenzo[d][1,3]dioxol-5-yl)-3-(pyridin-2-yl)pyrazolo[1,5-a]pyrimidin-7(4H)-one], the IC50 was at most 10 µM.

Take `Cc1nn2c(=O)cc(-c3ccc4c(c3C)OCO4)[nH]c2c1-c1ccccn1` [Example 232, 2-Methyl-5-(4-methylbenzo[d][1,3]dioxol-5-yl)-3-(pyridin-2-yl)pyrazolo[1,5-a]pyrimidin-7(4H)-one]: the IC50 is at most 10 µM.

Consider `COc1c(-c2cc(=O)n3ncc(-c4ccccn4)c3[nH]2)ccc2c1OCO2` [Example 233, 5-(4-Methoxybenzo[d][1,3]dioxol-5-yl)-3-(pyridin-2-yl)pyrazolo[1,5-a]pyrimidin-7(4H)-one], for which the half-inhibitory concentration (IC50) is at most 10 µM.

For `Cc1cc2[nH]nnc2cc1-c1cc(=O)n2ncc(-c3ccccn3)c2[nH]1` [Example 236, 5-(6-Methyl-1H-benzo[d][1,2,3]triazol-5-yl)-3-(pyridin-2-yl)pyrazolo[1,5-a]pyrimidin-7(4H)-one], the 50% inhibitory concentration (IC50) was at most 10 µM.

On to `Cc1cc2[nH]nnc2cc1-c1cc(=O)n2nc(N)c(-c3ccccn3)c2[nH]1` [Example 238, 2-Amino-5-(6-methyl-1H-benzo[d][1,2,3]triazol-5-yl)-3-(pyridin-2-yl)pyrazolo[1,5-a]pyrimidin-7(4H)-one], for which the IC50 is at most 10 µM.

As to `Cc1cc2[nH]nnc2cc1-c1cc(=O)n2nc(O)c(-c3ccccn3)c2[nH]1` [Example 239, 2-Hydroxy-5-(6-methyl-1H-benzo[d][1,2,3]triazol-5-yl)-3-(pyridin-2-yl)pyrazolo[1,5-a]pyrimidin-7(4H)-one], the IC50 was at most 10 µM.

As for `Cc1c(-c2cc(=O)n3nc(N)c(-c4ccccn4)c3[nH]2)ccc2[nH]nnc12` [Example 240, 2-Amino-5-(4-methyl-1H-benzo[d][1,2,3]triazol-5-yl)-3-(pyridin-2-yl)pyrazolo[1,5-a]pyrimidin-7(4H)-one], the IC50 was at most 10 µM.

As for `Cc1c(-c2cc(=O)n3nc(O)c(-c4ccccn4)c3[nH]2)ccc2[nH]nnc12` [Example 241, 2-Hydroxy-5-(4-methyl-1H-benzo[d][1,2,3]triazol-5-yl)-3-(pyridin-2-yl)pyrazolo[1,5-a]pyrimidin-7(4H)-one], the half-inhibitory concentration (IC50) is at most 10 µM.

These data come from patent US10953012B2, “Heterocyclic compounds for the inhibition of pask” (BioEnergenix LLC, priority 2011, dated 2021).
